# Data published in US4975538A, “Antibiotic sulfonylaminocarbonyl activated beta-lactams” (The Upjohn Company, priority 1989, dated 1990).
# Key:
# Assay in all cases: Minimum Inhibitory Concentration (MIC), agar dilution in Mueller Hinton Agar
# Assay type in all cases: cell-based
# Enterobacter Cloacae = conditions: 20 h
# Description: (§1) The compounds of this invention and their respective pharmaceutically acceptable salts have antibiotic activity against a variety of gram-negative bacteria including Escherichia coli, Klebsiella pneumoniae, and Pseudomonas aeruginosa. The compounds are useful for treating bacterial infections in animals, including and most preferably humans. Compounds of the invention are tested for in vitro antimicrobial activity using standard testing procedures such as the determination of minimum inhibitory concentration (MIC) by methods described in "Methods for Dilution Antimicrobial Susceptibility Tests for Bacteria That Grow Aerobically" (M7-A) Published December 1985 by the National Committee for Clinical Laboratory Standards, 771 East Lancaster Avenue, Villanova, Pa. 19084. Briefly, MIC values are determined in unsupplemented Mueller Hinton Agar (MHA). The compounds tested are diluted serially into molten MHA at 47° C. The agar is poured into petri dishes and allowed to harden. The various bacteria used for testing are grown overnight on MHA at 35° C. and transferred to Tryptiease Soy Broth (TSB) until a turbidity of 0.5 McFarland standard is obtained. The bacteria are diluted one to twenty in TSB and inoculated on the plates (1 μl using a Steers replicator).
# Pseudomonas Aeruginosa = conditions: 20 h
# Description: as §1
# Citrobacter Freundli = conditions: 20 h, culture number 3507
# Description: as §1
# Streptococcus Faecalis = conditions: Enterococcus faecalis, 20 h; culture number 694
# Description: as §1
# Proteus Vulgaris = conditions: 20 h, culture number 9679
# Description: as §1
# Streptococcus Pyogenes = conditions: 20 h, culture number 152
# Description: as §1
# Staphylococcus Aureus = conditions: 20 h
# Description: as §1
# Escherichia Coli = conditions: 20 h
# Description: as §1
# Streptococcus Pneumoniae = conditions: 20 h, culture number 41
# Description: as §1
# Klebsiella Oxytoca = conditions: 20 h
# Description: as §1
# Serratia Marcescens = conditions: 20 h
# Description: as §1
# Klebsiella Pneumoniae = conditions: 20 h, culture number 58
# Description: as §1
SMILES,MIC (Enterobacter Cloacae; culture number 9381) [mg/L],MIC (Enterobacter Cloacae; culture number 9382) [mg/L],MIC (Pseudomonas Aeruginosa; culture number 231) [mg/L],MIC (Pseudomonas Aeruginosa; culture number 9191) [mg/L],MIC (Citrobacter Freundli) [mg/L],MIC (Streptococcus Faecalis) [mg/L],MIC (Proteus Vulgaris) [mg/L],MIC (Streptococcus Pyogenes) [mg/L],MIC (Staphylococcus Aureus; culture number 3665) [mg/L],MIC (Staphylococcus Aureus; culture number 6685) [mg/L],MIC (Staphylococcus Aureus; culture number 9218) [mg/L],MIC (Escherichia Coli; culture number 9379) [mg/L],MIC (Escherichia Coli; culture number 9380) [mg/L],MIC (Escherichia Coli; culture number 9451) [mg/L],MIC (Streptococcus Pneumoniae) [mg/L],MIC (Klebsiella Oxytoca; culture number 9383) [mg/L],MIC (Klebsiella Oxytoca; culture number 9384) [mg/L],MIC (Serratia Marcescens; culture number 6888) [mg/L],MIC (Klebsiella Pneumoniae) [mg/L],MIC (Serratia Marcescens; culture number 9888) [mg/L]
"CC(C)(O/N=C(\C(=O)N[C@H]1CN(C(=O)NS(=O)(=O)n2nc(-c3cc(=O)c(O)c[nH]3)[nH]c2=O)C1=O)c1csc(N)n1)C(=O)O [E23 (a), propanoic acid, 2-[[[1-(2-amino-4-thiazolyl)-2-[[1-[[[[3-(1,4-dihydro-5-hydroxy-4-oxo-2-pyridinyl)-2,5-dihydro-5-oxo-1H-1,2,4-triazol-1-yl]sulfonyl]amino]carbonyl]-2-oxo-3-azetidinyl]amino]-2-oxoethylidene]amino]oxy]-2-methyl-, [S-(Z)]-]",4,0.5,0.5,0.5,0.03,> 64,0.03,16,> 64,> 64,> 64,< 0.008,< 0.008,< 0.008,> 64,0.03,0.03,0.015,0.25,–
"Nc1nc(C(=NOCC(=O)O)C(=O)NC2CN(C(=O)NS(=O)(=O)N3CC(CNC(=O)c4cc(=O)c(O)c[nH]4)OC3=O)C2=O)cs1 (stereo not shown) [E27 (a), [[[1-(2-amino-4-thiazolyl)-2-[[1-[[[[4-[[(1,4-dihydro-5-hydroxy-4-oxo-2-pyridinyl)carbonyl]amino]-[2-oxo-5-oxazolydinyl]methyl]sulfonyl]amino]carbonyl]-2-oxo-3-azetidinyl]amino]-2-oxoethylidene]amino]oxy] acetic acid]",128,2,4,64,0.25,–,0.5,16,–,–,–,< 0.06,< 0.06,< 0.06,–,4,0.25,–,0.5,0.5
"CC(C)(O/N=C(\C(=O)N[C@H]1CN(C(=O)NS(=O)(=O)N2CCN(NC(=O)c3ccn(O)c(=O)c3)C2=O)C1=O)c1csc(N)n1)C(=O)O [E42 (d), Propanoic acid, 2-[[[1-(2-amino-4-thiazolyl)-2-[[1-[[[[3-[[(1,2-dihydro-1-hydroxy-2-oxo-4-pyridinyl)carbonyl]amino]2-oxo-1-imidazolidinyl]sulfonyl]amino]carbonyl]-2-oxo-3-azetidinyl]amino]-2-oxoethylidene]amino]oxy]-2-methyl-, [S-(Z)]-]",64,0.5,1,1,0.25,> 64,0.03,4,> 64,> 64,> 64,0.25,0.25,0.125,64,4,0.25,0.5,0.25,–

# Further lines, results first:
MIC (Enterobacter Cloacae; culture number 9381) [mg/L],MIC (Enterobacter Cloacae; culture number 9382) [mg/L],MIC (Pseudomonas Aeruginosa; culture number 231) [mg/L],MIC (Pseudomonas Aeruginosa; culture number 9191) [mg/L],MIC (Citrobacter Freundli) [mg/L],MIC (Streptococcus Faecalis) [mg/L],MIC (Proteus Vulgaris) [mg/L],MIC (Streptococcus Pyogenes) [mg/L],MIC (Staphylococcus Aureus; culture number 3665) [mg/L],MIC (Staphylococcus Aureus; culture number 6685) [mg/L],MIC (Staphylococcus Aureus; culture number 9218) [mg/L],MIC (Escherichia Coli; culture number 9379) [mg/L],MIC (Escherichia Coli; culture number 9380) [mg/L],MIC (Escherichia Coli; culture number 9451) [mg/L],MIC (Streptococcus Pneumoniae) [mg/L],MIC (Klebsiella Oxytoca; culture number 9383) [mg/L],MIC (Klebsiella Oxytoca; culture number 9384) [mg/L],MIC (Serratia Marcescens; culture number 6888) [mg/L],MIC (Klebsiella Pneumoniae) [mg/L],MIC (Serratia Marcescens; culture number 9888) [mg/L],SMILES
128,8,4,8,0.5,–,0.5,64,–,–,–,0.125,0.03,0.06,–,4,0.25,–,2,0.5,CC(C)(ON=C(C(=O)NC1CN(C(=O)NS(=O)(=O)N2CC(CNC(=O)c3cc(=O)c(O)c[nH]3)OC2=O)C1=O)c1csc(N)n1)C(=O)O (stereo not shown) [E27 (b)]
> 64,1,> 64,64,2,> 64,0.25,16,> 64,> 64,> 64,0.5,0.25,0.5,> 64,4,0.25,1,0.5,–,"CCCCn1cc(O)c(=O)cc1C(=O)NN1CCN(S(=O)(=O)NC(=O)N2C[C@H](NC(=O)/C(=N\OC(C)(C)C(=O)O)c3csc(N)n3)C2=O)C1=O [E42 (b), Propanoic acid, 2-[[[1-(2-amino-4-thiazolyl)-2-[[1-[[[[3-[[(1-butyl-1,4-dihydro-5-hydroxy-4-oxo-2-pyridinyl)carbonyl]amino]-2-oxo-1-imidazolidinyl]sulfonyl]amino]carbonyl]-2-oxo-3-azetidinyl]amino]-2-oxoethylidene]amino]oxy]-2-methyl-, [S-(Z)]-]"
